Data taken from patent publication US20230210797A1, “PREVENTING AND TREATING HYPOGLYCEMIA” (DIAMYD MEDICAL AB, priority 2019, published 2023).

Tests used:
glucagon = assay: Hypoglycemic clamp: plasma glucagon levels; type: in vivo, human; conditions: for Glucagon levels, Change from baseline, Mean (SD) / Glucagon levels, Change from baseline, Median (Min, Max) / Glucagon levels, Observed value, Mean (SD) / Glucagon levels, Observed value, Median (Min, Max): C-peptide undetectable
Protocol: In order to evaluate the counterregulatory hormone response to hypoglycemia, a hypoglycemic clamp will be performed. The Hypoglycemic Clamp must be performed according to the instructions in the Operations Manual. (Appendix 3)
The patient should: • Come to the study site following an overnight fast (>10 hours), i.e. the patient may not eat but is permitted to drink water • Not have taken the Remygen and, if applicable, Alprazolam dose in the morning • Not take short acting/direct acting insulin within 6 hours before the investigation. • The patient is allowed to take base-insulin day/night before, but not in the morning before the investigation.
Patients with CSII (insulin pump) must continue with their basal dose insulin, but not add bolus dose during the last 6 hours before the investigation.
If a patient has a blood sugar level <4 mmol/L in the morning of the scheduled visit, the patient is allowed to take dextrose tablets and then come to the study site. The patient is allowed to perform the investigation if the blood sugar level is >4 mmol/L.
In the dose-escalation part of the study, the patient will take study drug 30 min prior to start of the hypoglycemic clamp. In the main study, the study drug will instead be taken after finalization of the hypoglycemic clamp. Baseline blood samples will be obtained for glucose, glucagon, epinephrine, norepinephrine, growth hormone and cortisol. The clamp will then be initiated by an intravenous insulin infusion at a rate of 2 mU×kg^−1×min^−1. Glucose 100 mg/ml will then be administered in variable infusion rates to clamp the blood glucose concentration at 5.5 mmol/land then at 2.5 mmol/land kept stable for 30 min. Blood glucose will be evaluated repeatedly in order to find the optimal glucose infusion rate. Blood sampling to determined levels of counterregulatory hormones as described above will be performed at each of these target levels when a stable glucose concentration has been reached. The insulin infusion will thereafter be terminated and the patient is allowed to eat and will be observed until normoglycemia is achieved. If necessary, additional glucose administration will be given to allow blood glucose concentrations to normalize.
Plasma glucose was first lowered to normoglycemic levels (5.5 mmol/L) and hormone levels monitored, and then to hypoglycemic levels (2.5 mmol/L) and hormone levels monitored. Difference was calculated as a measurement of the response to hypoglycemia.

[1] = Time spent below, within and above normal blood glucose range (4-10 mmol/L), FreeStyle Libre Pro FGM; type: in vivo, human; conditions: for Time above range, Mean / Time above range, Median / Time below range, Mean / Time below range, Median / Time within range, Mean / Time within range, Median: normal blood glucose range 4-10 mmol/L, n=6
Excerpt: The FreeStyle Libre Pro FGM System is a professional glucose monitoring device indicated for detecting trends and tracking patterns and glucose level excursions above or below the desired range, facilitating therapy adjustments in persons with diabetes. Readings from the FreeStyle Libre Pro FGM System are not made available directly to patients in real time. The FreeStyle Libre Pro FGM System aids in the detection of episodes of hyperglycemia and hypoglycemia, facilitating therapy adjustments.
Patients will receive the Freestyle Libre Pro at the site at Visit 1 and Visit 2 in the Safety and Dose Escalation study and will be instructed how to return the FreeStyle Libre to the site after each of the testing period. For the main study patients will receive the Freestyle Libre Pro at the site during Visit 1 (all Treatment arms), Visit 7 (Treatment arm 1), Visit 8 (Treatment arm 2 and 3) and will be instructed how to return the FreeStyle Libre to the site after each of the testing period. However, for Visit 9 (Treatment arm 1) and Visit 10 (Treatment arm 2 and 3) patients will be instructed to come to the site 14 days before the visit to receive the Freestyle Libre and have it activated. The patients will then return the Freestyle Libre at Visit 9 or Visit 10, depending on treatment arm. The timing of the distribution of the glucose monitoring system and assessments is described in Above.
Blood glucose levels for all six patients in the dose escalation part of the study was measured during certain time intervals to determine time spent in, above, and below normal blood glucose range (4-10 mmol/L).

[2] = Visit 5, 200 mg GABA per day, Event 2.5 mmol/L
[3] = Visit 5, 200 mg GABA per day, Event 5.5 mmol/L
[4] = Visit 5, 200 mg GABA per day, Event Baseline
[5] = Visit 5, 200 mg GABA per day, Event Diff 2.5-5.5 mmol/L
[6] = Visit 7, 600 mg GABA per day, Event 2.5 mmol/L
[7] = Visit 7, 600 mg GABA per day, Event 5.5 mmol/L
[8] = Visit 7, 600 mg GABA per day, Event Baseline
[9] = Visit 7, 600 mg GABA per day, Event Diff 2.5-5.5 mmol/L
[10] = Visit 9, 1200 mg GABA per day, Event 2.5 mmol/L
[11] = Visit 9, 1200 mg GABA per day, Event 5.5 mmol/L
[12] = Visit 9, 1200 mg GABA per day, Event Baseline
[13] = Visit 9, 1200 mg GABA per day, Event Diff 2.5-5.5 mmol/L
[14] = normal range 4-10 mmol/L, all six patients of dose escalation part

**Q.** For `NCCCC(=O)O` [GABA, Gamma-amino butyric acid], which “Glucagon levels, Change from baseline, Mean (SD)” value (from here on “Glucagon levels, Change … (SD)”) (glucagon; [2]) is on record?
**A.** 2.12 pmol/L

**Q.** What about the “Glucagon levels, Change from baseline, Median (Min, Max)” value (“Glucagon levels, Change … (Min, Max)” below) (glucagon; [2]) of the same molecule?
**A.** 1.60 pmol/L

**Q.** And the “Glucagon levels, Observed value, Mean (SD)” value (glucagon; [2])?
**A.** 4.88 (2.44) pmol/L

**Q.** What about the “Glucagon levels, Observed value, Median (Min, Max)” value (glucagon; [2]) of the same molecule?
**A.** 4.80 pmol/L

**Q.** What about the “Glucagon levels, Change … (SD)” value (glucagon; [3]) of the same molecule?
**A.** -0.11 pmol/L

**Q.** And the “Glucagon levels, Change … (Min, Max)” value (glucagon; [3])?
**A.** 0.00 pmol/L

**Q.** And the “Glucagon levels, Observed value, Mean (SD)” value (glucagon; [3])?
**A.** 2.08 (1.33) pmol/L

**Q.** And the “Glucagon levels, Observed value, Median (Min, Max)” value (glucagon; [3])?
**A.** 2.20 pmol/L

**Q.** And the “Glucagon levels, Change … (SD)” value (glucagon; [4])?
**A.** 0.46 pmol/L

**Q.** And the “Glucagon levels, Change … (Min, Max)” value (glucagon; [4])?
**A.** 0.60 pmol/L

**Q.** And the “Glucagon levels, Observed value, Mean (SD)” value (glucagon; [4])?
**A.** 3.92 (1.03) pmol/L

**Q.** And the “Glucagon levels, Observed value, Median (Min, Max)” value (glucagon; [4])?
**A.** 3.60 pmol/L

**Q.** And the “Glucagon levels, Change … (SD)” value (glucagon; [5])?
**A.** 2.23 pmol/L

**Q.** What about the “Glucagon levels, Change … (Min, Max)” value (glucagon; [5]) of the same molecule?
**A.** 1.85 pmol/L

**Q.** And the “Glucagon levels, Observed value, Mean (SD)” value (glucagon; [5])?
**A.** 2.80 (2.07) pmol/L

**Q.** What about the “Glucagon levels, Observed value, Median (Min, Max)” value (glucagon; [5]) of the same molecule?
**A.** 2.60 pmol/L

**Q.** What about the “Glucagon levels, Change … (SD)” value (glucagon; [6]) of the same molecule?
**A.** 1.64 pmol/L

**Q.** And the “Glucagon levels, Change … (Min, Max)” value (glucagon; [6])?
**A.** 1.40 pmol/L

**Q.** And the “Glucagon levels, Observed value, Median (Min, Max)” value (glucagon; [6])?
**A.** 4.20 pmol/L

**Q.** And the “Glucagon levels, Change … (SD)” value (glucagon; [7])?
**A.** -0.66 pmol/L

**Q.** And the “Glucagon levels, Change … (Min, Max)” value (glucagon; [7])?
**A.** -0.60 pmol/L

**Q.** And the “Glucagon levels, Observed value, Mean (SD)” value (glucagon; [7])?
**A.** 1.53 (1.32) pmol/L

**Q.** What about the “Glucagon levels, Observed value, Median (Min, Max)” value (glucagon; [7]) of the same molecule?
**A.** 0.75 pmol/L

**Q.** And the “Glucagon levels, Change … (SD)” value (glucagon; [8])?
**A.** -0.42 pmol/L

**Q.** What about the “Glucagon levels, Change … (Min, Max)” value (glucagon; [8]) of the same molecule?
**A.** -0.70 pmol/L

**Q.** What about the “Glucagon levels, Observed value, Mean (SD)” value (glucagon; [8]) of the same molecule?
**A.** 3.04 (0.66) pmol/L

**Q.** What about the “Glucagon levels, Observed value, Median (Min, Max)” value (glucagon; [8]) of the same molecule?
**A.** 3.10 pmol/L

**Q.** And the “Glucagon levels, Change … (SD)” value (glucagon; [9])?
**A.** 2.30 pmol/L

**Q.** What about the “Glucagon levels, Change … (Min, Max)” value (glucagon; [9]) of the same molecule?
**A.** 2.10 pmol/L

**Q.** What about the “Glucagon levels, Observed value, Mean (SD)” value (glucagon; [9]) of the same molecule?
**A.** 2.87 (1.96) pmol/L

**Q.** And the “Glucagon levels, Observed value, Median (Min, Max)” value (glucagon; [9])?
**A.** 2.95 pmol/L

**Q.** And the “Glucagon levels, Change … (SD)” value (glucagon; [10])?
**A.** 3.16 pmol/L

**Q.** What about the “Glucagon levels, Change … (Min, Max)” value (glucagon; [10]) of the same molecule?
**A.** 3.30 pmol/L

**Q.** And the “Glucagon levels, Observed value, Mean (SD)” value (glucagon; [10])?
**A.** 5.92 (3.70) pmol/L

**Q.** What about the “Glucagon levels, Observed value, Median (Min, Max)” value (glucagon; [10]) of the same molecule?
**A.** 5.60 pmol/L

**Q.** What about the “Glucagon levels, Change … (SD)” value (glucagon; [11]) of the same molecule?
**A.** -0.58 pmol/L

**Q.** What about the “Glucagon levels, Change … (Min, Max)” value (glucagon; [11]) of the same molecule?
**A.** -0.80 pmol/L

**Q.** And the “Glucagon levels, Observed value, Mean (SD)” value (glucagon; [11])?
**A.** 1.61 (1.18) pmol/L

**Q.** And the “Glucagon levels, Observed value, Median (Min, Max)” value (glucagon; [11])?
**A.** 0.75 pmol/L

**Q.** What about the “Glucagon levels, Change … (SD)” value (glucagon; [12]) of the same molecule?
**A.** 0.96 pmol/L

**Q.** And the “Glucagon levels, Change … (Min, Max)” value (glucagon; [12])?
**A.** 0.50 pmol/L

**Q.** What about the “Glucagon levels, Observed value, Median (Min, Max)” value (glucagon; [12]) of the same molecule?
**A.** 3.90 pmol/L

**Q.** And the “Glucagon levels, Change … (SD)” value (glucagon; [13])?
**A.** 3.74 pmol/L

**Q.** And the “Glucagon levels, Change … (Min, Max)” value (glucagon; [13])?
**A.** 3.30 pmol/L

**Q.** And the “Glucagon levels, Observed value, Mean (SD)” value (glucagon; [13])?
**A.** 4.31 (4.33) pmol/L

**Q.** And the “Glucagon levels, Observed value, Median (Min, Max)” value (glucagon; [13])?
**A.** 2.60 pmol/L

**Q.** And the “Counter regulatory response of Glucagon, effect of GABA treatment” value (glucagon; change in levels when clamping to 2.5 mmol/L from 5.5 mmol/L)?
**A.** increased

**Q.** And the “Normoglycemic levels of Glucagon, effect of GABA treatment” value (glucagon; clamped to 5.5 mmol/L)?
**A.** decrease

**Q.** And the “Circulating glucagon concentrations, effect of GABA” value (glucagon; type 1 diabetes individuals with pathologically increased glucagon)?
**A.** lower

**Q.** What about the “Time above range, Mean” value ([1]; Day 3 to 4) of the same molecule?
**A.** 28.7%

**Q.** What about the “Time above range, Median” value ([1]; Day 3 to 4) of the same molecule?
**A.** 28.8%

**Q.** And the “Time below range, Mean” value ([1]; Day 3 to 4)?
**A.** 14.8%

**Q.** And the “Time below range, Median” value ([1]; Day 3 to 4)?
**A.** 14.3%

**Q.** And the “Time within range, Mean” value ([1]; Day 3 to 4)?
**A.** 56.6%

**Q.** What about the “Time within range, Median” value ([1]; Day 3 to 4) of the same molecule?
**A.** 62.0%

**Q.** And the “Time above range, Mean” value ([1]; Day 6 to 7)?
**A.** 37.7%

**Q.** What about the “Time above range, Median” value ([1]; Day 6 to 7) of the same molecule?
**A.** 36.5%

**Q.** What about the “Time below range, Mean” value ([1]; Day 6 to 7) of the same molecule?
**A.** 4.8%

**Q.** What about the “Time below range, Median” value ([1]; Day 6 to 7) of the same molecule?
**A.** 4.0%

**Q.** What about the “Time within range, Mean” value ([1]; Day 6 to 7) of the same molecule?
**A.** 57.6%

**Q.** And the “Time within range, Median” value ([1]; Day 6 to 7)?
**A.** 59.5%

**Q.** What about the “Time above range, Mean” value ([1]; Day 9) of the same molecule?
**A.** 39.5%

**Q.** And the “Time above range, Median” value ([1]; Day 9)?
**A.** 50.0%

**Q.** What about the “Time below range, Mean” value ([1]; Day 9) of the same molecule?
**A.** 5.5%

**Q.** What about the “Time below range, Median” value ([1]; Day 9) of the same molecule?
**A.** 2.5%

**Q.** And the “Time within range, Mean” value ([1]; Day 9)?
**A.** 55.0%

**Q.** And the “Time within range, Median” value ([1]; Day 9)?
**A.** 47.0%

**Q.** And the “Time above normal blood glucose range, effect of GABA treatment” value [1, 14]?
**A.** decreased

**Q.** What about the “Time below normal blood glucose range, effect of GABA treatment” value [1, 14] of the same molecule?
**A.** decreased

**Q.** What about the “Time in normal blood glucose range, effect of GABA treatment” value [1, 14] of the same molecule?
**A.** increased
